Data from patent US4657927A, “Malonato platinum compounds” (Research Corporation, priority 1983, dated 1987).

Columns and labels:
Sarcoma 180 [1] = experiment: Antitumor activity, solid sarcoma 180 tumor, T/C of tumor weights at day 10 (Table I); assay type: in vivo, female Swiss white mice
Description: The compounds of the invention were tested for antitumor activity, i.e., for sensitivity to a planar dsp^2 platinum(II) coordination compound or an octahedral d^2 sp^3 platinum(IV) coordination compound using our standard screening tumor, solid sarcoma 180 tumor in female Swiss white mice, following standard protocols for this testing as set by the National Cancer Institute. (Cancer Chemotherapy Rep., 25 (1962)).
For these tests an S 180 tumor taken from a sacrificed mouse was disected free of superfluous tissue and cut under sterile conditions into approximately 10 milligram size pieces. These tissue pieces were then implanted by trocar in the left axillary region, subcutaneously, in new mice. The mice were, on the average, approximately four weeks old and weighed 18-20 grams. Taking day 0 as the day of implant, the animals were sacrificed on day 10. The tumors were excised and weighed and the ratio of the weights of the tumors in mice in the treated animals to the control set of animals was obtained. This ratio, multiplied by 100, is given as the T/C ratio in Table I.
For the first set of tests the coordination compound was freshly dissolved in sterile distilled water and injected intraperitoneally on day 1 into each of the test mice. The volume of the injection was usually 1/2 ml. In some cases, in order to get an active dose into the animal where the chemical was not soluble in this amount of solvent, a fine dispersion was prepared of the dose needed for the test. Thus, some of our test results were obtained on animals where a slurry of the compound was injected. These are so noted in Table I below. In addition, for some of the compounds, there was injected about 1 ml of solution, either in one single injection, or in 2 injections given a few hours apart of 1/2 ml each. These injections were initially given in 4 different dose levels for each new compound with 6 mice in each dose level. The tests covered a dose range from a low ineffective dose, to an upper dose level which produced some deaths within the time period of the experiment.

ADJ/PC6A = experiment: Confirmatory antitumor test, ADJ/PC6A tumor (Table III); assay type: in vivo, Mouse; details: single injection day 25 in oil, i.p.
Description: (§1) Confirmatory tests of antitumor activity against the Walker 256 Carcinosarcoma in rats, and the ADJ/PC6A tumor in mice were conducted. The initial test results are shown in Table III and confirm the potent action of the compounds of the invention against these other tumor systems.

[2] = test system: Walker 256 Carcinosarcoma; experiment: Confirmatory antitumor test, Walker 256 Carcinosarcoma (Table III); assay type: in vivo, Rat; details: single injection day 1 in oil, i.p.
Description: as §1

Sarcoma 180 [3] = experiment: Large Sarcoma 180 regressions, injection on day 8 (Table II); assay type: in vivo, female Swiss white mice; details: single i.p. injection on day 8, H2O solution
Description: In addition to the day 1 injections described above, in a number of case injections were delayed until day 8 of tumor growth. In these cases the tumor was usually at least larger than 1/2 gm, as estimated by palpation. The animals were then injected and observed for a period of approximately 60 days. Activity was measured by the number of animals whose tumors had regressed to the vanishing point, while still allowing the animal to survive for this time period. Such test results are described in TABLE II below.

L1210 = experiment: Confirmatory antitumor test at the National Cancer Institute, L1210 (Table IV); assay type: in vivo, Mice
Description: Samples of the malonato diammine and malonato ethylene diamine complexes of platinum(II) were submitted to the Drug Research and Development Branch of the National Cancer Institute for screening for antitumor activity against the L1210 tumor in mice. They confirm the activity of the compounds of the invention.

[4] = 20 mg/kg, single i.p. injection day 1
[5] = 40 mg/kg, single i.p. injection day 1
[6] = 60 mg/kg, single i.p. injection day 1
[7] = 80 mg/kg, single i.p. injection day 1
[8] = 100 mg/kg, single i.p. injection day 1
[9] = 120 mg/kg, single i.p. injection day 1
[10] = 160 mg/kg, single i.p. injection day 1
[11] = 30 mg/kg, single i.p. injection day 1, solution in H2O
[12] = 40 mg/kg, single i.p. injection day 1, solution in H2O
[13] = 50 mg/kg, single i.p. injection day 1, solution in H2O
[14] = 60 mg/kg, single i.p. injection day 1, solution in H2O
[15] = 70 mg/kg, single i.p. injection day 1, solution in H2O
[16] = 80 mg/kg, single i.p. injection day 1, solution in H2O
[17] = dose level 40 (unit not given), single i.p. injection day 1
[18] = dose level 60 (unit not given), single i.p. injection day 1
[19] = dose level 80 (unit not given), single i.p. injection day 1
[20] = dose level 90 (unit not given), single i.p. injection day 1
[21] = dose level 100 (unit not given), single i.p. injection day 1
[22] = dose level 110 (unit not given), single i.p. injection day 1
[23] = dose level 120 (unit not given), single i.p. injection day 1
[24] = dose level 45 (unit not given), single i.p. injection day 1
[25] = dose level 75 (unit not given), single i.p. injection day 1
[26] = dose level 20 (unit not given), single i.p. injection day 1
[27] = 140 mg/kg, single i.p. injection day 1
[28] = 180 mg/kg, single i.p. injection day 1
[29] = 10 mg/kg, single i.p. injection day 1, solution in H2O
[30] = 20 mg/kg, single i.p. injection day 1, solution in H2O
[31] = 45 mg/kg, single i.p. injection day 1, solution in H2O
[32] = 55 mg/kg, single i.p. injection day 1, solution in H2O
[33] = 90 mg/kg, single i.p. injection day 1, solution in H2O

## N.N.O=C([O-])C1(C(=O)[O-])CCC1.[Pt+4] [1,1-cyclobutanedicarboxylate diammineplatinum (II)]
Sarcoma 180 [1]; [4]
  No. of Deaths: 0
  T/C: 71
Sarcoma 180 [1]; [5]
  No. of Deaths: 0
  T/C: 60
Sarcoma 180 [1]; [6]
  No. of Deaths: 0
  T/C: 38
Sarcoma 180 [1]; [7]
  No. of Deaths: 0
  T/C: 42
Sarcoma 180 [1]; [8]
  No. of Deaths: 0
  T/C: 69
Sarcoma 180 [1]; [9]
  No. of Deaths: 0
  T/C: 18
Sarcoma 180 [1]; [10]
  No. of Deaths: 4
  T/C: 62

## CC1C(=O)[O][Pt]([NH2])([NH2])[O]C1=O [Methylmalonatodiammineplatinum (II)]
Sarcoma 180 [1]; [11]
  No. of Deaths: 0
  T/C: 39
Sarcoma 180 [1]; [12]
  No. of Deaths: 0
  T/C: 26
Sarcoma 180 [1]; [13]
  No. of Deaths: 0
  T/C: 35
Sarcoma 180 [1]; [14]
  No. of Deaths: 0
  T/C: 6
Sarcoma 180 [1]; [15]
  No. of Deaths: 3/6
Sarcoma 180 [1]; [16]
  No. of Deaths: 6/6

## CCC(C(=O)[O-])C(=O)[O-].N.N.[Pt+2] [ethylmalonatodiammineplatinum (II)]
Sarcoma 180 [1]; [11]
  No. of Deaths: 0
  T/C: 57
Sarcoma 180 [1]; [12]
  No. of Deaths: 0
  T/C: 43
Sarcoma 180 [1]; [13]
  No. of Deaths: 0
  T/C: 47
Sarcoma 180 [1]; [14]
  No. of Deaths: 0
  T/C: 39
Sarcoma 180 [1]; [15]
  No. of Deaths: 0
  T/C: 17
Sarcoma 180 [1]; [16]
  No. of Deaths: 0
  T/C: 16

## CCC1C(=O)[O][Pt]2([NH]CC[NH]2)[O]C1=O [ethylmalonatoethylenediamineplatinum (II)]
Sarcoma 180 [1]; [17]
  No. of Deaths: 0
  T/C: 72
Sarcoma 180 [1]; [18]
  No. of Deaths: 0
  T/C: 81
Sarcoma 180 [1]; [19]
  No. of Deaths: 0
  T/C: 79
Sarcoma 180 [1]; [20]
  No. of Deaths: 0
  T/C: 47
Sarcoma 180 [1]; [21]
  No. of Deaths: 1
  T/C: 55
Sarcoma 180 [1]; [22]
  No. of Deaths: 0
  T/C: 41
Sarcoma 180 [1]; [23]
  No. of Deaths: 0
  T/C: 58

## CC(N)CN.O=C([O-])CC(=O)[O-].[Pt+2] [malonato-1,2 propylenediamineplatinum (II)]
Sarcoma 180 [1]; [24]
  No. of Deaths: 0
  T/C: 50
Sarcoma 180 [1]; [18]
  No. of Deaths: 1
  T/C: 9
Sarcoma 180 [1]; [25]
  No. of Deaths: 3
  T/C: 16
Sarcoma 180 [1]; [20]
  No. of Deaths: 5

## NCCCN.O=C([O-])CC(=O)[O-].[Pt+2] [malonato-1,3 propylenediamineplatinum (II)]
Sarcoma 180 [1]; [26]
  No. of Deaths: 0
  T/C: 69
Sarcoma 180 [1]; [17]
  No. of Deaths: 0
  T/C: 79
Sarcoma 180 [1]; [18]
  No. of Deaths: 0
  T/C: 21
Sarcoma 180 [1]; [19]
  No. of Deaths: 1
  T/C: 35

## CN.CN.O=C([O-])CC(=O)[O-].[Pt+2] [malonatobis (methylamine) platinum (II)]
Sarcoma 180 [1]; [7]
  No. of Deaths: 0
  T/C: 58
Sarcoma 180 [1]; [8]
  No. of Deaths: 0
  T/C: 53
Sarcoma 180 [1]; [9]
  No. of Deaths: 0
  T/C: 28
Sarcoma 180 [1]; [27]
  No. of Deaths: 0
  T/C: 25
Sarcoma 180 [1]; [10]
  No. of Deaths: 1
  T/C: 17
Sarcoma 180 [1]; [28]
  No. of Deaths: 1
  T/C: 19

## NCCN.O=C([O-])CC(=O)[O-].[Pt+2] [malonatoethylenediamineplatinum (II)]
ADJ/PC6A; dose 4 (unit not given)
  % Inhibition: 1.3%
  Deaths: 0
ADJ/PC6A; dose 20 (unit not given)
  % Inhibition: 94%
  Deaths: 0
ADJ/PC6A; dose 100 (unit not given)
  % Inhibition: 100%
  Deaths: 0
ADJ/PC6A; dose 500 (unit not given)
  Deaths: all
[2]; dose 10 (unit not given)
  % Inhibition: 1%
  Deaths: 0
[2]; dose 20 (unit not given)
  % Inhibition: 25%
  Deaths: 0
[2]; dose 40 (unit not given)
  % Inhibition: 100%
  Deaths: 0
[2]; dose 80 (unit not given)
  % Inhibition: 100%
  Deaths: 0
[2]; dose 160 (unit not given)
  Deaths: all
Sarcoma 180 [3]; 40 mg/kg
  Deaths: 3
  Total Number of Regressions: 3
Sarcoma 180 [3]; 45 mg/kg
  Deaths: 5
  Total Number of Regressions: 1
Sarcoma 180 [3]; 50 mg/kg
  Deaths: 4
  Total Number of Regressions: 2
Sarcoma 180 [3]; 60 mg/kg
  Deaths: 3
  Total Number of Regressions: 3
L1210; 11 mg/kg, daily injections days 1-9, i.p. (repeat test)
  % Increase in Lifespan: 145%
L1210; 12.5 mg/kg, daily injections days 1-9, i.p.
  % Increase in Lifespan: 151%
L1210; 16.5 mg/kg, daily injections days 1-9, i.p. (repeat test)
  % Increase in Lifespan: 160%
L1210; 25 mg/kg, daily injections days 1-9, i.p.
  % Increase in Lifespan: 160%
L1210; 25 mg/kg, daily injections days 1-9, i.p. (repeat test)
  % Increase in Lifespan: 196%
L1210; 37.5 mg/kg, daily injections days 1-9, i.p. (repeat test)
  % Increase in Lifespan: 121%
L1210; 50 mg/kg, daily injections days 1-9, i.p.
  % Increase in Lifespan: 101%
Sarcoma 180 [1]; [29]
  No. of Deaths: 0
  T/C: 88
Sarcoma 180 [1]; [30]
  No. of Deaths: 0
  T/C: 58
Sarcoma 180 [1]; [12]
  No. of Deaths: 0
  T/C: 18
Sarcoma 180 [1]; [31]
  No. of Deaths: 0
  T/C: 49
Sarcoma 180 [1]; [13]
  No. of Deaths: 0
  T/C: 35
Sarcoma 180 [1]; [32]
  No. of Deaths: 0
  T/C: 38
Sarcoma 180 [1]; [14]
  No. of Deaths: 3/6
  T/C: 15
Sarcoma 180 [1]; [16]
  No. of Deaths: 3/6
  T/C: 24
Sarcoma 180 [1]; [18]
  No. of Deaths: 0
  T/C: 80
Sarcoma 180 [1]; [19]
  No. of Deaths: 0
Sarcoma 180 [1]; [21]
  No. of Deaths: 0
  T/C: 85
Sarcoma 180 [1]; [23]
  No. of Deaths: 0
  T/C: 50

## CC1C(=O)[O][Pt]2([NH]CC[NH]2)[O]C1=O [methylmalonatoethylenediamineplatinum(II)]
Sarcoma 180 [1]; [11]
  No. of Deaths: 0
  T/C: 78
Sarcoma 180 [1]; [12]
  No. of Deaths: 0
  T/C: 80
Sarcoma 180 [1]; [13]
  No. of Deaths: 0
  T/C: 51
Sarcoma 180 [1]; [14]
  No. of Deaths: 0
  T/C: 26
Sarcoma 180 [1]; [15]
  No. of Deaths: 1
  T/C: 20
Sarcoma 180 [1]; [33]
  No. of Deaths: 1
  T/C: 4
